Measurements published in paper PMC11145187 (Proceedings of the National Academy of Sciences of the …, 2024).
Positions count from the first letter of the chain named.

How the values were obtained:
AHR [1] = test system: AHR; set-up: method as in PMID 33230523; details: human cells overexpressing either AHR version; cited from earlier work
AHR [2] = test system: AHR; set-up: method as in PMID 33260776; details: 10 nM, H9 cells; two genes less expressed, 14 higher expressed; cited from earlier work
AHR^V381 [3] = molecular target: T1, AHR^V381 (Homo sapiens, UniProt P35869); details: AHR^V381 cells, 4 h
T1 sequence (P35869 11-848): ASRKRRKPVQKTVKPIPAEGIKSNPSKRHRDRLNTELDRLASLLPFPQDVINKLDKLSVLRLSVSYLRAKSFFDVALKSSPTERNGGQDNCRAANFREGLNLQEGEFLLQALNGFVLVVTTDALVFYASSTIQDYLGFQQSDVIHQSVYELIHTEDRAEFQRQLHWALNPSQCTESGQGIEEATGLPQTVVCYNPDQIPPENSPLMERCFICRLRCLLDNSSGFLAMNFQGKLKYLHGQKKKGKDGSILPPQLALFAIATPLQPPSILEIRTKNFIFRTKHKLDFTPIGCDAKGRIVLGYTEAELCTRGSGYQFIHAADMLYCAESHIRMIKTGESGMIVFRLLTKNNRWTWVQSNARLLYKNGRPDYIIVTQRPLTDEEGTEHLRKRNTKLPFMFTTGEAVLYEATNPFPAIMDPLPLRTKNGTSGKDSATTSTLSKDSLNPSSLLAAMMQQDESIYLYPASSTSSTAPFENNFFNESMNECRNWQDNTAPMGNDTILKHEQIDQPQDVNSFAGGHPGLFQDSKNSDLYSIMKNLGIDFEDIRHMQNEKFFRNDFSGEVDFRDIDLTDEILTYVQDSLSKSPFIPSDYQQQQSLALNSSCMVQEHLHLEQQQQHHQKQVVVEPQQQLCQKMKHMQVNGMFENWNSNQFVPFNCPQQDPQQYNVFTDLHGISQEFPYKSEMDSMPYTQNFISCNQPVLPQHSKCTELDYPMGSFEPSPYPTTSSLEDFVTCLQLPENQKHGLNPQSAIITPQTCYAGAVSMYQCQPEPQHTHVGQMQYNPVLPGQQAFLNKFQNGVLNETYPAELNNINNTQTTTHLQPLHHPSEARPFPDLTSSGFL
Procedure: We incubated the cells with different concentrations of AHR ligands and measured CYP1A1 and CYP1B1 mRNA levels after 4 h.
Error bars show SDs of four independent ligand treatments. qPCR were performed in triplicates.
AHR, CYP1A1 and CYP1B1 relative quantification and ligand assays
were purchased from Sigma-Aldrich, dissolved in DMSO (Invitrogen, D12345) to generate stocks 2000x
the final concentrations used in the ligand assays and stored at -20°C.
Four days prior to cell harvest, a single cell solution was prepared with Accutase and the cells were
3000 cells per well were seeded in 96 well plates
and cultured under normal cell culture conditions for four days, with the last media change 24h before cell
harvest. Ligands were added to a final concentration of 0.05% DMSO in the culture medium for four hours
similar to other work (13-15). Cell harvest, reverse transcription and quantitative real-time PCR was […]
for several samples also AHR was measured in a 20 µl multiplexed quantitative PCR reaction with 10 µl […]
GUSB) or Thermo Fisher Scientific (CYP1B1, AHR), sequences: Suppl, Table S1). Quantitative PCR was […]
5 min, 45x (95 °C 5 s, 60 °C 15 s, 72 °C 15 s, plate read). […]
Cq values were determined with Bio-Rad Laboratories’ CFX-Manager (version 3.1) and relative […]
gene in untreated wild type cells. The data were plotted and analyzed using GraphPad Prism (version 8.4.3). […]

AHR^A381 = molecular target: T2, AHR^A381 (Homo sapiens, UniProt P35869, V381A); details: 5 µM, 4 h
T2 sequence (P35869 11-848 V381A): T1 sequence (P35869 11-848) with V371A
Source text: (§1) the manufacturer's instructions.
(§2) manufacturer’s instructions.

AHR^V381 [4] = molecular target: T1, AHR^V381; test: RNA sequencing of treated versus mock-treated AHR^V381-expressing H9 cells; assay type: cell-based; set-up: they had not been changed in the editing process; endogenous in cells; host or cells: H9 human embryonic stem cells, a pool of 13 control clones that went through editing but remained wild type; details: 5 µM, 4 h
Source text: as §1, §2

Clc1cc2c(cc1Cl)Oc1cc(Cl)c(Cl)cc1O2 [2,3,7,8-Tetrachlorodibenzo-p-dioxin]
difference between the two AHR forms in induction of CYP1A1 (AHR [1]): no differences | number of the 117 differentially expressed genes affected by TCDD exposure (AHR [2]): 16 genes

c1ccc2c(c1)cc1ccc3cccc4ccc2c1c34 [Benzo(a)pyrene]
concentration at which CYP1A1 and CYP1B1 mRNA levels are slightly induced (AHR^V381 [3]): 1000 nM

Cc1ccccc1N=Nc1ccc(NC(=O)c2ccnn2C)c(C)c1 [CH-223191]
number of the 117 genes differing between AHR^A381 and AHR^V381 cells that change expression upon inhibitor treatment (AHR^A381): 20 genes | number of the 117 genes differing between AHR^A381 and AHR^V381 cells that change expression upon inhibitor treatment (AHR^V381 [4]): none | target gene expression upon inhibitor treatment (AHR^V381 [4]): tends to be further reduced upon treatment with the inhibitor, albeit not significantly so
